Data: the CheMixHub ionic liquid set
Where “and” joins values, the source holds several entries; their conditions need not be identical. Equal entries are not always repeated.

Test: xn = mol fraction of the nth substance listed

C[N+](C)(C)CCO.O=S(=O)([N-]S(=O)(=O)C(F)(F)F)C(F)(F)F + OCCCO
101 kPa
Conditions	viscosity [mPa·s]
313.15 K, x2 = 0.1272	47.2
313.15 K, x2 = 0.4106	30
313.15 K, x2 = 0.5712	24.9
318.15 K, x2 = 0	46.8
328.15 K, x2 = 0	33.4
333.15 K, x2 = 0.1272	23.9
333.15 K, x2 = 0.2297	20.5
333.15 K, x2 = 0.6946	11.27
338.15 K, x2 = 0.2297	17.8
338.15 K, x2 = 0.6946	9.76
338.15 K, x2 = 0.9474	8.48
343.15 K, x2 = 0.2297	15.62
348.15 K, x2 = 0	19.1
348.15 K, x2 = 0.5712	8.63
353.15 K, x2 = 0.8367	5.98

CCCC[P+](c1ccccc1)(c1ccccc1)c1ccccc1.[Br-] + OCCO
100 kPa, x2 = 0.9756
Conditions	viscosity [mPa·s]
303.15 K	21.6
313.15 K	18.5
323.15 K	15.5
333.15 K	14
343.15 K	12
353.15 K	10.5

C[N+](C)(C)CCO.O=S(=O)([N-]S(=O)(=O)C(F)(F)F)C(F)(F)F + OCCO
100 kPa, x1 = 0.14
Conditions	electrical conductivity [S/m]	viscosity [mPa·s]
303 K	0.381	17.9
323 K	0.73	8.85

C[P+](c1ccccc1)(c1ccccc1)c1ccccc1.[Br-] + OCCO
Conditions	viscosity [mPa·s]
298.15 K, 100 kPa, x1 = 0.1	35
298.2 K, 101 kPa, x1 = 0.2	121
303.15 K, 100 kPa, x1 = 0.33	116.5
303.15 K, 100 kPa, x2 = 0.8333	56.5
303.15 K, 100 kPa, x2 = 0.9091	30.5
303.15 K, 100 kPa, x2 = 0.9756	17.6
313.15 K, 100 kPa, x1 = 0.1	18.24
313.15 K, 100 kPa, x1 = 0.33	65.5
313.15 K, 100 kPa, x2 = 0.9756	13
323.15 K, 100 kPa, x2 = 0.9756	9.5
323.15 K, 101 kPa, x1 = 0.25	31.72
333.15 K, 100 kPa, x2 = 0.9756	7.5
343.15 K, 100 kPa, x2 = 0.9756	6
353.15 K, 100 kPa, x2 = 0.9756	5.1

O=S=O + OCCO + C[P+](c1ccccc1)(c1ccccc1)c1ccccc1.[Br-]
100 kPa
Conditions	viscosity [mPa·s]
303.15 K, x1 = 0.02458, x2 = 0.9516	18.4
313.15 K, x1 = 0.01623, x2 = 0.9598	14
323.15 K, x1 = 0.01303, x2 = 0.9629	10.1
333.15 K, x1 = 0.01147, x2 = 0.9644	7.5
343.15 K, x1 = 0.009705, x2 = 0.9661	6

C[N+](C)(C)CCO.O=S(=O)([N-]S(=O)(=O)C(F)(F)F)C(F)(F)F + OCCOCCOCCOCCO
Conditions	viscosity [mPa·s]
298.15 K, 101 kPa, x2 = 0	144.8

CCCCCCCCCCCCCCCC[N+](C)(C)C.[Br-] + OC[C@@H](O)[C@@H](O)[C@H](O)[C@@H](O)CO + O
viscosity [mPa·s], 100 kPa
Conditions	298.15 K	308.15 K	318.15 K
x2 = 0, x1 = 7.21e-06	0.896	0.742	0.617
x2 = 0, x1 = 1.442e-05	0.898	0.744	0.617
x2 = 0, x1 = 2.162e-05	0.9	0.745	0.617

CCCCCCCCCCCCCCCC[N+](C)(C)C.[Br-] + OC[C@@H](O)[C@H](O)[C@@H](O)CO + O
viscosity [mPa·s], 100 kPa
Conditions	298.15 K	308.15 K	318.15 K
x1 = 7.19e-06, x2 = 0.002032	0.942	0.778	0.646
x1 = 7.19e-06, x2 = 0.002472	0.952	0.785	0.652
x1 = 7.19e-06, x2 = 0.002816	0.96	0.791	0.657
x1 = 7.2e-06, x2 = 0.0009831	0.918	0.759	0.631
x1 = 7.2e-06, x2 = 0.001215	0.923	0.763	0.634
x1 = 7.2e-06, x2 = 0.00156	0.931	0.769	0.639
x1 = 7.21e-06, x2 = 0	0.896	0.742	0.617
x1 = 1.437e-05, x2 = 0.002971	0.97	0.801	0.664
x1 = 1.438e-05, x2 = 0.002331	0.955	0.789	0.654
x1 = 1.439e-05, x2 = 0.001497	0.935	0.772	0.641
x1 = 1.439e-05, x2 = 0.002025	0.947	0.783	0.649
x1 = 1.44e-05, x2 = 0.0008555	0.919	0.76	0.631
x1 = 1.44e-05, x2 = 0.001291	0.929	0.768	0.638
x1 = 1.442e-05, x2 = 0	0.898	0.744	0.617
x1 = 2.156e-05, x2 = 0.002894	0.973	0.804	0.666
x1 = 2.157e-05, x2 = 0.002365	0.96	0.793	0.657
x1 = 2.158e-05, x2 = 0.002035	0.951	0.786	0.651
x1 = 2.159e-05, x2 = 0.001618	0.941	0.778	0.644
x1 = 2.16e-05, x2 = 0.0009365	0.924	0.764	0.633
x1 = 2.16e-05, x2 = 0.001242	0.931	0.77	0.638
x1 = 2.162e-05, x2 = 0	0.9	0.745	0.617

CCCCCCCCn1cc[n+](C)c1.[Cl-] + OC[C@H]1O[C@@](CO)(O[C@H]2O[C@H](CO)[C@@H](O)[C@H](O)[C@H]2O)[C@@H](O)[C@@H]1O + O
298.15 K, 101.3 kPa
Conditions	electrical conductivity
x2 = 0, x1 = 4.96e-06	0.00314 S/m
x2 = 0, x1 = 7.53e-06	0.00467 S/m
x2 = 0, x1 = 1.002e-05	0.00613 S/m
x2 = 0, x1 = 1.247e-05	0.00756 S/m
x2 = 0, x1 = 1.481e-05	0.00893 S/m
x2 = 0, x1 = 1.716e-05	0.01029 S/m
x2 = 0, x1 = 1.95e-05	0.0116 S/m
x2 = 0, x1 = 2.177e-05	0.0129 S/m
x2 = 0, x1 = 2.424e-05	0.01436 S/m
x2 = 0, x1 = 2.667e-05	0.0158 S/m
x2 = 0, x1 = 2.939e-05	0.0173 S/m
x2 = 0.003591, x1 = 1.259e-05	0.00669 S/m
x2 = 0.003591, x1 = 1.587e-05	0.00832 S/m
x2 = 0.003591, x1 = 1.902e-05	0.00988 S/m
x2 = 0.003591, x1 = 2.222e-05	0.0114 S/m
x2 = 0.003591, x1 = 2.521e-05	0.0129 S/m
x2 = 0.003591, x1 = 2.835e-05	0.0144 S/m
x2 = 0.003591, x1 = 3.142e-05	0.0159 S/m
x2 = 0.003591, x1 = 3.424e-05	0.01727 S/m
x2 = 0.003591, x1 = 3.712e-05	0.0186 S/m
x2 = 0.007156, x1 = 1.254e-05	0.00531 S/m
x2 = 0.007156, x1 = 1.623e-05	0.00676 S/m
x2 = 0.007156, x1 = 1.993e-05	0.00821 S/m
x2 = 0.007156, x1 = 2.37e-05	0.00967 S/m
x2 = 0.007156, x1 = 2.738e-05	0.0111 S/m
x2 = 0.007156, x1 = 3.084e-05	0.01242 S/m
x2 = 0.007156, x1 = 3.403e-05	0.0137 S/m
x2 = 0.007156, x1 = 3.72e-05	0.0149 S/m
x2 = 0.007156, x1 = 4.042e-05	0.01608 S/m
x2 = 0.007156, x1 = 4.288e-05	0.01701 S/m
x2 = 0.0107, x1 = 8.12e-06	0.00311 S/m
x2 = 0.0107, x1 = 1.295e-05	0.00472 S/m
x2 = 0.0107, x1 = 1.756e-05	0.00623 S/m
x2 = 0.0107, x1 = 2.181e-05	0.00762 S/m
x2 = 0.0107, x1 = 2.602e-05	0.00898 S/m
x2 = 0.0107, x1 = 3.017e-05	0.0103 S/m
x2 = 0.0107, x1 = 3.408e-05	0.0115 S/m
x2 = 0.0107, x1 = 3.778e-05	0.0127 S/m
x2 = 0.0107, x1 = 4.136e-05	0.0138 S/m
x2 = 0.0107, x1 = 4.484e-05	0.0149 S/m
x2 = 0.0107, x1 = 4.818e-05	0.016 S/m
x2 = 0.01421, x1 = 9.43e-06	0.00302 S/m
x2 = 0.01421, x1 = 1.407e-05	0.00432 S/m
x2 = 0.01421, x1 = 1.861e-05	0.00559 S/m
x2 = 0.01421, x1 = 2.29e-05	0.00678 S/m
x2 = 0.01421, x1 = 2.718e-05	0.00795 S/m
x2 = 0.01421, x1 = 3.134e-05	0.00908 S/m
x2 = 0.01421, x1 = 3.512e-05	0.0101 S/m
x2 = 0.01421, x1 = 3.883e-05	0.0111 S/m
x2 = 0.01421, x1 = 4.258e-05	0.0121 S/m
x2 = 0.01421, x1 = 4.643e-05	0.01312 S/m
x2 = 0.0177, x1 = 7.66e-06	0.00219 S/m
x2 = 0.0177, x1 = 1.502e-05	0.00393 S/m
x2 = 0.0177, x1 = 2.194e-05	0.00554 S/m
x2 = 0.0177, x1 = 2.846e-05	0.00705 S/m
x2 = 0.0177, x1 = 3.471e-05	0.00848 S/m
x2 = 0.0177, x1 = 4.134e-05	0.00996 S/m
x2 = 0.0177, x1 = 4.728e-05	0.01128 S/m
x2 = 0.0177, x1 = 5.36e-05	0.0127 S/m
x2 = 0.0177, x1 = 5.928e-05	0.0139 S/m
x2 = 0.0177, x1 = 6.496e-05	0.01517 S/m
x2 = 0.02116, x3 = 0.9788	0.0133 S/m and 0.0143 S/m

CCCCCCCCCCCCCCCC[N+](C)(C)C.[Br-] + OC[C@H]1O[C@H](O[C@H]2[C@H](O)[C@@H](O)C(O)O[C@@H]2CO)[C@H](O)[C@@H](O)[C@@H]1O + O
viscosity [mPa·s], 100 kPa
Conditions	298.15 K	308.15 K	318.15 K
x1 = 7.21e-06, x2 = 0	0.896	0.742	0.617
x1 = 1.442e-05, x2 = 0	0.898	0.744	0.617
x1 = 2.162e-05, x2 = 0	0.9	0.745	0.617

CCCCCCCCn1cc[n+](C)c1.N#C[S-] + [Br-].[Li+] + CN1CCCC1=O
298.15 K, 101 kPa
Conditions	viscosity [mPa·s]
x1 = 0.001194, x2 = 0.02592	2.51
x1 = 0.001279, x2 = 0.05082	3.301
x1 = 0.001363, x2 = 0.07495	4.627
x1 = 0.002361, x2 = 0.07487	4.663
x1 = 0.002564, x2 = 0.05075	3.33
x1 = 0.002749, x2 = 0.02588	2.538
x1 = 0.003543, x2 = 0.07478	4.688
x1 = 0.003719, x2 = 0.05069	3.358
x1 = 0.003898, x2 = 0.02585	2.568
x1 = 0.004852, x2 = 0.05063	3.389
x1 = 0.005129, x2 = 0.07466	4.714
x1 = 0.00561, x2 = 0.02581	2.544
x1 = 0.005681, x2 = 0.05059	3.416
x1 = 0.006324, x2 = 0.07457	4.741
x1 = 0.006743, x2 = 0.02578	2.6
x1 = 0.007583, x2 = 0.07448	4.77
x1 = 0.007954, x2 = 0.05048	3.441
x1 = 0.008125, x2 = 0.02574	2.622
x1 = 0.008906, x2 = 0.07438	4.799
x1 = 0.009097, x2 = 0.05042	3.471
x1 = 0.009222, x2 = 0.02572	2.651
x1 = 0.009986, x2 = 0.05037	3.503
x1 = 0.01013, x2 = 0.02569	2.674
x1 = 0.01054, x2 = 0.07426	4.824
